One may read the IC50 as the concentration that inhibits the measured activity by half.

For data set [1], the system named is GRC-1 multidrug resistant human cervical carcinoma cells. Put plainly: steady state accumulation of VBL, GRC-1. The data set is classed as cell-based. The method, then: At the desired time, the medium was aspirated and cells washed 5 times with ice cold PBS. Cells were digested overnight in 1N NaOH, at which time aliquots were used to determine protein content and radioactivity. The final concentration of VBL was 6 nM.
Cells were incubated for one hour with media containing either tritiated vinblastine (^3 H]VBL) alone or containing [^3 H]VBL with 50 μM masoprocol. Cells were then washed with ice cold PBS and the amount of VBL accumulated in cells was determined using a scintillation counter. In FIG. 1 each data point represents the mean of replicate experiments performed with duplicate cultures. Vertical bars are +/- S.D.

For data set [2], the system named is KB-3-1 human cervical carcinoma cells. Put plainly: inhibition of colony formation, KB-3-1. The conditions noted are these: KB 3-1, 240 h, read-out: IC50 (Masoprocol), 50% inhibition of colony formation, 10 days, 37° C., parenthesis: standard deviation. The class given is cell-based. An excerpt:
(§1) To investigate whether masoprocol modulates multidrug resistance, a line of multidrug resistant (GRC-1) cells which were derived from parenteral drug sensitive human cervical carcinoma (KB-3-1) cells by transfection of the mdr1 genes were employed. Such transfection was by the method set forth in Choi, et al., Cell 53:519-529, 1989. These cell lines differ only with respect to the over-expression of P-glycoprotein. These tests were designed to examine whether masoprocol modulates tumor cell drug resistance by interfering with P-glycoprotein function. […] See, Regulation of initial vinblastine influx by P-glycoprotein, Shalinsky, et al., cited above.
Masoprocol was provided by Chemex Pharmaceuticals, Inc. (Fort Lee, N.J.). Tritiated vinblastine ([^3 H]VBL) (10 Ci mmol^-1) was purchased from Moravek Biochemicals (Brea, Calif.), stored in the dark at -80° C. and protected from light during the experiments. […]
(§2) First, cells which had been seeded at 200-300 cells/dish were incubated in media containing masoprocol or VBL. After an incubation period of 10 days at 37° C. the cells were fixed with methanol and stained with Giemsa, and the number of colonies per dish were counted and expressed as a percent of the number of colonies in control conditions. […] Parenthesis indicate standard deviations determined from replicate experiments.

The test system of data set [3] is OVCAR3 ovarian cancer cells. Put plainly: in vitro cytotoxicity anti tumor activity. The data set is classed as cell-based. To be noted: Homo sapiens, read-out: IC50.
A further data set has as its system P-glycoprotein. Put plainly: P-glycoprotein substrate. To be noted: inferred from colony formation in GRC-1 vs KB-3-1. The class given is cell-based, human.
Text: as §1, §2

Data set [4] deals with multidrug resistant tumor cells. Description: effects on vincristine (VBL substituted by vincristine in Example 3). The data set is classed as cell-based. An excerpt:
In accordance with the invention VBL can be substituted by vincristine in Example 3.

Data set [5] has as its system KB-3-1 human cervical carcinoma cells. Put plainly: initial influx of VBL, KB-3-1. The data set is classed as cell-based. To be noted: 50 μM masoprocol added concurrently with VBL, 3 to 24 seconds; FIG. 4b. The protocol:
A further test was conducted to show the effect of masoprocol on the initial influx of VBL. Cells were exposed to media containing [^3 H]VBL with and without 50 μM masoprocol. After incubation times ranging from 3 seconds to 24 seconds, the media was removed. The amount of VBL taken up by the cells was determined as described in A. The data was summarized from four replicate experiments. FIG. 4apresents the results for the GRC-1 cell line, and FIG. 4b for the KB-3-1 cell line.

Data set [6] relates to GRC-1 multidrug resistant human cervical carcinoma cells. Description: inhibition of colony formation, GRC-1. The class given is cell-based. To be noted: Homo sapiens, 240 h, read-out: IC50 (Masoprocol), 50% inhibition of colony formation; 10 days, 37° C.; parenthesis: standard deviation.
Text: as §1
Masoprocol was provided by Chemex Pharmaceuticals, Inc. (Fort Lee, N.J.). Tritiated vinblastine ([^3 H]VBL) (10 Ci mmol^-1) was purchased from Moravek Biochemicals (Brea, Calif.), stored in the dark at -80° C. and protected from light during the experiments. Dipyridamole (DPM) was provided by Boerhinger Ingelheim Pharmaceuticals, Inc. (Ridgefield, Conn.).
Drug-sensitive KB-3-1 cells and the drug resistant subline (KB-GRC-1) were obtained from Dr. Igor Roninson (University of Illinois, College of Medicine, Chicago, Ill.). Cells were maintained in Dulbecco's modified Eagle's medium supplemented with 10% fetal bovine serum and 2 mM glutamine. The KB-GRC-1 cells were maintained in medium supplemented with 6 ng/ml colchicine.
as §2

Data set [7] concerns Lung (NCI-H23) cancer cells. Description: in vitro cytotoxicity anti tumor activity. The class given is cell-based. To be noted: Homo sapiens, read-out: IC50.
The test system of data set [8] is MCF7/ADR human breast adenocarcinoma cells. Description: flow cytometry P-glycoprotein function assay of doxorubicin efflux, MCF7/ADR (doxorubicin resistant). The data set is classed as cell-based. The method, then:
The following tests were preformed to determine the effect of NDGA on efflux of doxorubicin (hereinafter sometimes referred to as DOX) for doxorubicin sensitive MCF7/0 and doxorubicin resistant MCF7/ADR human breast adenocarcinoma cells in vitro.
The cells were exposed to 50 μg/ml NDGA for 24 hrs prior to loading with DOX (doxorubicin) at 37° C. […] PBS. Flow analysis of cell efflux of DOX was collected over 30 minutes using the time parameter.
Procedure for P-Glycoprotein (PGP) Function Assay of Doxorubicin Efflux is shown hereunder.
1. […] Store at room temperature.
2. Doxorubicin (GFW=580) Make a solution of doxorubicin to contain 10 μg/ml. Store frozen at 0° C.
4. NDGA (MW=302.36) Make a solution of NDGA to contain 50 μg/ml. Store frozen at 0° C.
5. MCF7/0 (Doxorubicin sensitive) and MCF7/ADR (Doxorubicin resistant), human breast adenocarcinoma cell lines.
1. Make up 2×10^6 cells per ml in PBS. Expose 1 ml of cells to 50 μg of NDGA for 24 hrs at 37° C. prior to loading with Doxorubicin.
2. Add 1 ml of 10 μg/ml doxorubicin, mix and divide into two aliquots.
4. Incubate both tubes at 37° C. for 30 minutes.
5. Centrifuge the tubes at 37° C. for 5 minutes on a fast spin to pellet cells. Resuspend in 1 ml of buffer.
6. Run immediately on the flow cytometer. Excitation 488 nm, emission 560-600 nm. Collect forward and 90° side scatter and PMT4 linear scale. Collect 10,000-50,000 events and calculate the mean channel fluorescence (MCF) for PMT4.
7. Run both samples as close together as possible, and avoid prolonged exposure to room temperature.
In general terms: Flow cytometry measures light scatter and fluorescence of single cells or particles in a stream.

Data set [9] concerns benign, paramalignant and malignant growth of the skin. To be noted: in combination with ionic zinc; cited from earlier work.
Another data set has as its system LOX-IMVI Melanoma cells. Description: in vitro cytotoxicity anti tumor activity. The class given is cell-based. The conditions noted are these: Homo sapiens, read-out: IC50.
For data set [10], the system named is several types of cancer cells. To be noted: Cancer Chemotherapy National Service Center; cited from earlier work.

“Also recorded” adds a separate entry of the source. Where two headings read alike, the source gives them in different places.

Consider `C[C@H](Cc1ccc(O)c(O)c1)[C@@H](C)Cc1ccc(O)c(O)c1` [Masoprocol, meso-1,4-bis (3,4-dihydroxyphenyl)-2,3-dimethylbutane], for which the “steady state accumulation of VBL, compared with verapamil” value in [1] (50 μM masoprocol) was “comparable to that of 10 μM verapamil”. In [1] (one hour, masoprocol with [3H]VBL), the “steady state accumulation of VBL” value is given as “dose-dependent increase in the steady state accumulation of VBL; also recorded: increases the steady state accumulation of VBL”. Also, the IC50 is 43.6 µM in data set [2]; 258 µM in [3] (OVCAR-3, 1 h, One Hour Pulse Treatment); 35.9 µM in data set [3] (OVCAR-3, Continuous Drug Exposure, observation at 70 hours); 66.8 µM in [6]; 172 µM in data set [7] (NCI-H23, 1 h, One Hour Pulse Treatment); 0.08 µM in [7] (NCI-H23, Continuous Drug Exposure, observation at 70 hours). Moreover, the IC50 came out at 38.4 µM in the data set with LOX-IMVI Melanoma cells (1 h, One Hour Pulse Treatment) and 0.08 µM with LOX-IMVI Melanoma cells (Continuous Drug Exposure, observation at 70 hours). The P-glycoprotein substrate result in the data set on P-glycoprotein is on record as “not a substrate for P-glycoprotein”. Moreover, the “effects on vincristine compared with VBL” value in [4] is on record as “comparative effects”. Moreover, the “initial VBL uptake (influx)” value in [5] is recorded as “substantial increase in initial VBL uptake; also recorded: effective modulator of initial VBL influx; also recorded: promotes the initial uptake of VBL”. In [8] (Homo sapiens, NCI/ADR-RES, 24 h, read-out: % DOX increase w/NDGA), the activation at 50 µg/mL came out at 25.6%. Also, in data set [8] (resistant cells, listed as NDGA), the “DOX loading / retention / efflux (in words)” value is on record as “augmentation of DOX retention; also recorded: will inhibit the efflux of DOX”. Moreover, in data set [9], the “effectiveness in treatment of growth of the skin” value was “effective”. Moreover, in data set [10], the “result in screening against cancer cells” value was “negative results”.
